Results reported in patent US20080039515A1, “Arylpyrazoles And Methods Of Using Same For Control Of Insect Pests That Bore Into Trees” (The Texas A&M University System, priority 2004, published 2008).
Where two headings read alike, the source gives them in different places.

Tested on: Ips engravers beetles
Format: in vivo
Protocol: Study Sites: Two 20-year-old, recently thinned loblolly pine plantations were selected in Texas. Trees in one plantation were injected for use in a bolt study (Trial 1). Trees in ½ acre section of the second plantation were injected as part of a single-tree protection study (Trial 2). A staging area also was set up in the second plantation where bolts from the first plantation were exposed to bark beetles and wood borers.
Population Monitoring: A clear panel of acetate (10 cm wide by 25 cm long) was attached to the center of each bolt after deployment of bolts or 2 m high on standing trees after deployment of pheromone baits to monitor arrival of bark beetles. The top surface of each panel was coated entirely with Stikem Special® trapping compound (Michel and Pelton, Emeryville, Calif.). The traps were left in place for two weeks.
After 1 (May 24), 3 (July 19) and 5 (September) months post-injection, 5 trees of each treatment were felled and two 1.5 m long bolts were removed from the 3 m and 8 m heights of the bole. Because southern pine beetle (SPB) populations were extremely low in east Texas during the study year, Ips engravers were used as alternative bark beetles for this study. The bolts were transported to a 20-year-old loblolly plantation that was recently thinned and contained fresh slash material. Each bolt was placed about 1 m apart on discarded, dry pine bolts to maximize surface area available for colonization as well as to discourage predation by ground and litter-inhabiting organisms. To facilitate timely bark beetle colonization, packets of bark beetle pheromones (racemic ipsdienol +lanerione combination, ipsenol or cis-verbenol; Phero Tech, Inc., Delta, BC, Canada) were attached separately to three 1 m stakes evenly spaced in the study area. Racemic ipsdienol and cis-verbenol were used with the second series of bolts deployed in July. The packets were removed after 2 weeks when signs of attacks (boring dust) were observed on most test bolts, signaling that naturally-produced pheromones were present.
Treatment Evaluation: Trial 1. The first and second series of bolts were retrieved 2.5 and 3 weeks, respectively, after deployment, after observing many cerambycid attacks on most of the bolts. In the laboratory, two 10×50 cm strips (total=1000 cm^2) of bark were removed from each bolt. Several measurements were made relating to construction of nuptial chambers and egg galleries and development of brood: • 1. Number of unsuccessful attacks—penetration to phloem, but no egg galleries. • 2. Number of successful attacks—construction of nuptial chamber and at least one egg gallery extending from it. • 3. Number and lengths of egg galleries with brood galleries radiating from them. • 4. Number and lengths of egg galleries without brood galleries. • 5. Cerambycid activity, estimated by overlaying a 100 cm^2 grid over a portion of each bark strip and counting the number of squares overlapping area where cerambycids had fed.
Treatment efficacy was determined by comparing Ips beetle attacks and egg gallery length and cerambycid feeding on treated and untreated bolts. The data were transformed by log10(x+1) to satisfy criteria for normality and homoscedasticity (Zar 1984) and analyzed by GLM and the Fishers Protected LSD test using the Statview statistical program.

[1] = 1 month post-injection (May), bolt height 3 m
[2] = 1 month post-injection (May), bolt height 8 m
[3] = 3 months post-injection (July), bolt height 3 m
[4] = 3 months post-injection (July), bolt height 8 m
[5] = 3 months post-injection, bolt height 3 m
[6] = 3 months post-injection, bolt height 8 m
[7] = 5 months post-injection (Sept.), bolt height 3 m
[8] = 5 months post-injection (Sept.), bolt height 8 m

With `N#Cc1nn(-c2c(Cl)cc(C(F)(F)F)cc2Cl)c(N)c1[S+]([O-])C(F)(F)F` (stereo not drawn) [Fip, 5-amino-3-cyano-1-(2,6-dichloro-4-trifluoromethylphenyl)-4-trifluoromethylsulfinylpyrazole] the “Length of Egg Galleries Total” value [1] was 135.0, the “Length of Egg Galleries With Brood” value [1] was 70.6 cm and the “Length of Egg Galleries With Brood % of Total” value [1] was 52.3%. The “Length of Egg Galleries Without Brood” value [1] was 64.4 cm, the “Length of Egg Galleries Without Brood % of Total” value [1] was 47.7% and the “Mean # of Ips caught/trap” value [1] was 4.0. The “Number of Egg Galleries Total” value [1] was 33.6, the “Number of Egg Galleries With Brood % of Total” value [1] was 29.8% and the “Number of Egg Galleries With Brood No.” value [1] was 10.0. For the same compound, the “Number of Egg Galleries Without Brood % of Total” value [1] was 70.2%, the “Number of Egg Galleries Without Brood No.” value [1] was 23.6 and the “Nuptial Chambers Total” value [1] was 21.0. For the same compound, the “Nuptial Chambers With Egg Galleries % of Total” value [1] was 51.4%, the “Nuptial Chambers With Egg Galleries No.” value [1] was 10.8 and the “Nuptial Chambers Without Egg Galleries No.” value [1] was 10.2. For the same compound, the “Length of Egg Galleries Total” value [2] was 332.8, the “Length of Egg Galleries With Brood” value [2] was 183.2 cm and the “Length of Egg Galleries With Brood % of Total” value [2] was 55.0%. The “Length of Egg Galleries Without Brood” value [2] was 149.6 cm, the “Length of Egg Galleries Without Brood % of Total” value [2] was 45.0% and the “Mean # of Ips caught/trap” value [2] was 3.6. For the same compound, the “Number of Egg Galleries Total” value [2] was 73.0, the “Number of Egg Galleries With Brood % of Total” value [2] was 36.7% and the “Number of Egg Galleries With Brood No.” value [2] was 26.8. For the same compound, the “Number of Egg Galleries Without Brood % of Total” value [2] was 63.3%, the “Number of Egg Galleries Without Brood No.” value [2] was 46.2 and the “Nuptial Chambers Total” value [2] was 25.8. For the same compound, the “Nuptial Chambers With Egg Galleries % of Total” value [2] was 89.9%, the “Nuptial Chambers With Egg Galleries No.” value [2] was 23.2 and the “Nuptial Chambers Without Egg Galleries % of Total” value [2] was 10.1%. For the same compound, the “Nuptial Chambers Without Egg Galleries No.” value [2] was 2.6, the “Mean # of Ips caught/trap” value [3] was 4.8 and the “Nuptial Chambers Total” value [3] was 12.6. The “Nuptial Chambers With Egg Galleries % of Total” value [3] was 22.2%, the “Nuptial Chambers With Egg Galleries No.” value [3] was 2.8 and the “Nuptial Chambers Without Egg Galleries No.” value [3] was 9.8. For the same compound, the “Mean # of Ips caught/trap” value [4] was 4.6, the “Nuptial Chambers Total” value [4] was 21.0 and the “Nuptial Chambers With Egg Galleries % of Total” value [4] was 8.6%. The “Nuptial Chambers With Egg Galleries No.” value [4] was 1.8, the “Nuptial Chambers Without Egg Galleries No.” value [4] was 19.2 and the “Length of Egg Galleries Total” value [5] was 19.4. The “Length of Egg Galleries With Brood” value [5] was 0.0 cm, the “Length of Egg Galleries With Brood % of Total” value [5] was 0.0% and the “Length of Egg Galleries Without Brood” value [5] was 19.4 cm. The “Length of Egg Galleries Without Brood % of Total” value [5] was 100.0%, the “Number of Egg Galleries Total” value [5] was 5.6 and the “Number of Egg Galleries With Brood % of Total” value [5] was 0.0%. For the same compound, the “Number of Egg Galleries With Brood No.” value [5] was 0.0, the “Number of Egg Galleries Without Brood % of Total” value [5] was 100.0% and the “Number of Egg Galleries Without Brood No.” value [5] was 5.6. The “Length of Egg Galleries Total” value [6] was 9.2, the “Length of Egg Galleries With Brood” value [6] was 1.0 cm and the “Length of Egg Galleries With Brood % of Total” value [6] was 10.9%. For the same compound, the “Length of Egg Galleries Without Brood” value [6] was 8.2 cm, the “Length of Egg Galleries Without Brood % of Total” value [6] was 89.1% and the “Number of Egg Galleries Total” value [6] was 3.0. For the same compound, the “Number of Egg Galleries With Brood % of Total” value [6] was 6.7%, the “Number of Egg Galleries With Brood No.” value [6] was 0.2 and the “Number of Egg Galleries Without Brood % of Total” value [6] was 93.3%. The “Number of Egg Galleries Without Brood No.” value [6] was 2.8, the “Length of Egg Galleries Total” value [7] was 5.8 and the “Length of Egg Galleries With Brood” value [7] was 3.4 cm. The “Length of Egg Galleries With Brood % of Total” value [7] was 58.6%, the “Length of Egg Galleries Without Brood” value [7] was 2.4 cm and the “Length of Egg Galleries Without Brood % of Total” value [7] was 41.4%. For the same compound, the “Mean # of Ips caught/trap” value [7] was 1.2, the “Number of Egg Galleries Total” value [7] was 1.0 and the “Number of Egg Galleries With Brood % of Total” value [7] was 40.0%. For the same compound, the “Number of Egg Galleries With Brood No.” value [7] was 0.4, the “Number of Egg Galleries Without Brood % of Total” value [7] was 60.0% and the “Number of Egg Galleries Without Brood No.” value [7] was 0.6. The “Nuptial Chambers Total” value [7] was 8.0, the “Nuptial Chambers With Egg Galleries % of Total” value [7] was 7.5% and the “Nuptial Chambers With Egg Galleries No.” value [7] was 0.6. For the same compound, the “Nuptial Chambers Without Egg Galleries % of Total” value [7] was 92.5%, the “Nuptial Chambers Without Egg Galleries No.” value [7] was 7.4 and the “Length of Egg Galleries Total” value [8] was 15.2. For the same compound, the “Length of Egg Galleries With Brood” value [8] was 13.0 cm, the “Length of Egg Galleries With Brood % of Total” value [8] was 85.5% and the “Length of Egg Galleries Without Brood” value [8] was 2.2 cm. For the same compound, the “Length of Egg Galleries Without Brood % of Total” value [8] was 14.5%, the “Mean # of Ips caught/trap” value [8] was 0.8 and the “Number of Egg Galleries Total” value [8] was 2.0. For the same compound, the “Number of Egg Galleries With Brood % of Total” value [8] was 60.0%, the “Number of Egg Galleries With Brood No.” value [8] was 1.2 and the “Number of Egg Galleries Without Brood % of Total” value [8] was 40.0%. The “Number of Egg Galleries Without Brood No.” value [8] was 0.8, the “Nuptial Chambers Total” value [8] was 6.6 and the “Nuptial Chambers With Egg Galleries % of Total” value [8] was 18.2%. The “Nuptial Chambers With Egg Galleries No.” value [8] was 1.2, the “Nuptial Chambers Without Egg Galleries % of Total” value [8] was 81.8% and the “Nuptial Chambers Without Egg Galleries No.” value [8] was 5.4.
